Measurements as given in ChEMBL document CHEMBL1201862, “PubChem BioAssay data set” (2004).
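In this assay, cells in 96-well plates receive the compound at five concentrations for 48 hours. Endpoints are linearly interpolated between the surrounding concentrations. GI50: concentration for 50% inhibition of growth.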 Active and inactive are the calls of the source. No stated cut-off is given here; in the data, active = GI50 up to about 1.1 µM and inactive = higher.

Legend:
Assay in all cases: NCI tumour cell line growth inhibition, 48 h
UACC-62 = system: UACC-62
HT-29 = system: HT-29
NCI-H522 = system: NCI-H522
U-251 = system: U-251
HOP-92 = system: HOP-92
SK-MEL-5 = system: SK-MEL-5
NCI-H460 = system: NCI-H460
SF-268 = system: SF-268
HOP-62 = system: HOP-62
HCT-116 = system: HCT-116
T47D = system: T47D
SK-OV-3 = system: SK-OV-3
SN12C = system: SN12C
SNB-19 = system: SNB-19
SR = system: SR
HL-60 = system: HL-60
Hs-578T = system: Hs-578T
IGROV-1 = system: IGROV-1
UO-31 = system: UO-31
SW-620 = system: SW-620
MCF7 = system: MCF7
786-0 = system: 786-0
DU-145 = system: DU-145
NCI-H23 = system: NCI-H23
CAKI-1 = system: CAKI-1
MDA-MB-435 = system: MDA-MB-435
EKVX = system: EKVX
A549 = system: A549
SF-295 = system: SF-295
OVCAR-5 = system: OVCAR-5
TK-10 = system: TK-10
BT-549 = system: BT-549
ACHN = system: ACHN
LOX IMVI = system: LOX IMVI
SF-539 = system: SF-539
OVCAR-8 = system: OVCAR-8
OVCAR-4 = system: OVCAR-4
NCI-H226 = system: NCI-H226
MOLT-4 = system: MOLT-4
PC-3 = system: PC-3
CCRF-CEM = system: CCRF-CEM
Malme-3M = system: Malme-3M
SK-MEL-2 = system: SK-MEL-2
MDA-N = system: MDA-N
K562 = system: K562
NCI/ADR-RES = system: NCI/ADR-RES
OVCAR-3 = system: OVCAR-3
COLO 205 = system: COLO 205
KM12 = system: KM12
MDA-MB-231 = system: MDA-MB-231
SNB-75 = system: SNB-75
HCT-15 = system: HCT-15
RXF 393 = system: RXF 393
RPMI-8226 = system: RPMI-8226
UACC-257 = system: UACC-257
A498 = system: A498
M14 = system: M14
SK-MEL-28 = system: SK-MEL-28
HCC 2998 = system: HCC 2998

COc1ccc(NC(=O)CC(=O)NN)cc1
GI50 (UACC-62): > 100 µM (inactive) | GI50 (HT-29): > 100 µM (inactive) | GI50 (NCI-H522): > 100 µM (inactive) | GI50 (U-251): > 100 µM (inactive) | GI50 (HOP-92): 64 µM (inactive) | GI50 (SK-MEL-5): > 100 µM (inactive) | GI50 (NCI-H460): > 100 µM (inactive) | GI50 (SF-268): > 100 µM (inactive) | GI50 (HOP-62): > 100 µM (inactive) | GI50 (HCT-116): > 100 µM (inactive) | GI50 (T47D): > 100 µM (inactive) | GI50 (SK-OV-3): > 100 µM (inactive) | GI50 (SN12C): > 100 µM (inactive) | GI50 (SNB-19): > 100 µM (inactive) | GI50 (SR): > 100 µM (inactive) | GI50 (HL-60): > 100 µM (inactive) | GI50 (Hs-578T): > 100 µM (inactive) | GI50 (IGROV-1): > 100 µM (inactive) | GI50 (UO-31): > 100 µM (inactive) | GI50 (SW-620): > 100 µM (inactive) | GI50 (MCF7): > 100 µM (inactive) | GI50 (786-0): > 100 µM (inactive) | GI50 (DU-145): > 100 µM (inactive) | GI50 (NCI-H23): > 100 µM (inactive) | GI50 (CAKI-1): > 100 µM (inactive) | GI50 (MDA-MB-435): > 100 µM (inactive) | GI50 (EKVX): > 100 µM (inactive) | GI50 (A549): > 100 µM (inactive) | GI50 (SF-295): > 100 µM (inactive) | GI50 (OVCAR-5): > 100 µM (inactive) | GI50 (TK-10): > 100 µM (inactive) | GI50 (BT-549): > 100 µM (inactive) | GI50 (ACHN): > 100 µM (inactive) | GI50 (LOX IMVI): > 100 µM (inactive) | GI50 (SF-539): > 100 µM (inactive) | GI50 (OVCAR-8): > 100 µM (inactive) | GI50 (OVCAR-4): > 100 µM (inactive) | GI50 (NCI-H226): > 100 µM (inactive) | GI50 (MOLT-4): > 100 µM (inactive) | GI50 (PC-3): > 100 µM (inactive) | GI50 (CCRF-CEM): > 100 µM (inactive) | GI50 (Malme-3M): > 100 µM (inactive) | GI50 (SK-MEL-2): > 100 µM (inactive) | GI50 (MDA-N): > 100 µM (inactive) | GI50 (K562): > 100 µM (inactive) | GI50 (NCI/ADR-RES): > 100 µM (inactive) | GI50 (OVCAR-3): > 100 µM (inactive) | GI50 (COLO 205): > 100 µM (inactive) | GI50 (KM12): > 100 µM (inactive) | GI50 (MDA-MB-231): > 100 µM (inactive) | GI50 (SNB-75): > 100 µM (inactive) | GI50 (HCT-15): > 100 µM | GI50 (RXF 393): > 100 µM (inactive) | GI50 (RPMI-8226): > 100 µM (inactive) | GI50 (UACC-257): > 100 µM (inactive)

CC(C)(C)OC(=O)CN1CCNCCNCC1
GI50 (UACC-62): > 100 µM (inactive) | GI50 (HT-29): > 100 µM (inactive) | GI50 (NCI-H522): > 100 µM (inactive) | GI50 (U-251): > 100 µM (inactive) | GI50 (HOP-92): > 100 µM (inactive) | GI50 (SK-MEL-5): > 100 µM (inactive) | GI50 (NCI-H460): > 100 µM (inactive) | GI50 (SF-268): > 100 µM (inactive) | GI50 (HOP-62): > 100 µM (inactive) | GI50 (HCT-116): > 100 µM (inactive) | GI50 (T47D): > 100 µM (inactive) | GI50 (SK-OV-3): > 100 µM (inactive) | GI50 (SN12C): > 100 µM (inactive) | GI50 (SNB-19): > 100 µM (inactive) | GI50 (SR): > 100 µM (inactive) | GI50 (HL-60): 9.55 µM (inactive) | GI50 (Hs-578T): > 100 µM (inactive) | GI50 (IGROV-1): > 100 µM (inactive) | GI50 (UO-31): > 100 µM (inactive) | GI50 (SW-620): > 100 µM (inactive) | GI50 (MCF7): > 100 µM (inactive) | GI50 (786-0): > 100 µM (inactive) | GI50 (DU-145): > 100 µM (inactive) | GI50 (NCI-H23): > 100 µM (inactive) | GI50 (CAKI-1): > 100 µM (inactive) | GI50 (MDA-MB-435): > 100 µM (inactive) | GI50 (EKVX): > 100 µM (inactive) | GI50 (A549): > 100 µM (inactive) | GI50 (SF-295): > 100 µM (inactive) | GI50 (OVCAR-5): > 100 µM (inactive) | GI50 (A498): > 100 µM (inactive) | GI50 (TK-10): > 100 µM (inactive) | GI50 (BT-549): > 100 µM (inactive) | GI50 (ACHN): > 100 µM (inactive) | GI50 (LOX IMVI): > 100 µM (inactive) | GI50 (SF-539): > 100 µM (inactive) | GI50 (OVCAR-8): > 100 µM (inactive) | GI50 (OVCAR-4): > 100 µM (inactive) | GI50 (NCI-H226): > 100 µM (inactive) | GI50 (MOLT-4): > 100 µM (inactive) | GI50 (PC-3): > 100 µM (inactive) | GI50 (CCRF-CEM): > 100 µM (inactive) | GI50 (Malme-3M): > 100 µM (inactive) | GI50 (SK-MEL-2): > 100 µM (inactive) | GI50 (MDA-N): > 100 µM (inactive) | GI50 (K562): > 100 µM (inactive) | GI50 (NCI/ADR-RES): > 100 µM (inactive) | GI50 (OVCAR-3): > 100 µM (inactive) | GI50 (COLO 205): > 100 µM (inactive) | GI50 (KM12): > 100 µM (inactive) | GI50 (MDA-MB-231): > 100 µM (inactive) | GI50 (SNB-75): > 100 µM (inactive) | GI50 (HCT-15): > 100 µM | GI50 (RXF 393): > 100 µM (inactive) | GI50 (RPMI-8226): > 100 µM (inactive) | GI50 (UACC-257): > 100 µM (inactive) | GI50 (M14): > 100 µM (inactive) | GI50 (SK-MEL-28): > 100 µM (inactive)

C=C(C)c1nc(C#N)c(N)o1
GI50 (HT-29): > 100 µM (inactive) | GI50 (U-251): > 100 µM (inactive) | GI50 (SK-MEL-5): > 100 µM (inactive) | GI50 (NCI-H460): > 100 µM (inactive) | GI50 (SF-268): > 100 µM (inactive) | GI50 (HOP-62): > 100 µM (inactive) | GI50 (HCT-116): > 100 µM (inactive) | GI50 (T47D): > 100 µM (inactive) | GI50 (SK-OV-3): > 100 µM (inactive) | GI50 (SN12C): > 100 µM (inactive) | GI50 (SNB-19): > 100 µM (inactive) | GI50 (SR): > 100 µM (inactive) | GI50 (Hs-578T): > 100 µM (inactive) | GI50 (IGROV-1): 36.3 µM (inactive) | GI50 (UO-31): > 100 µM (inactive) | GI50 (SW-620): > 100 µM (inactive) | GI50 (MCF7): > 100 µM (inactive) | GI50 (786-0): > 100 µM (inactive) | GI50 (DU-145): > 100 µM (inactive) | GI50 (NCI-H23): > 100 µM (inactive) | GI50 (CAKI-1): > 100 µM (inactive) | GI50 (MDA-MB-435): > 100 µM (inactive) | GI50 (EKVX): > 100 µM (inactive) | GI50 (A549): > 100 µM (inactive) | GI50 (SF-295): > 100 µM (inactive) | GI50 (OVCAR-5): > 100 µM (inactive) | GI50 (TK-10): > 100 µM (inactive) | GI50 (BT-549): > 100 µM (inactive) | GI50 (ACHN): > 100 µM (inactive) | GI50 (LOX IMVI): > 100 µM (inactive) | GI50 (SF-539): > 100 µM (inactive) | GI50 (OVCAR-8): > 100 µM (inactive) | GI50 (OVCAR-4): > 100 µM (inactive) | GI50 (NCI-H226): > 100 µM (inactive) | GI50 (MOLT-4): > 100 µM (inactive) | GI50 (PC-3): > 100 µM (inactive) | GI50 (CCRF-CEM): > 100 µM (inactive) | GI50 (Malme-3M): > 100 µM (inactive) | GI50 (SK-MEL-2): > 100 µM (inactive) | GI50 (MDA-N): > 100 µM (inactive) | GI50 (K562): > 100 µM (inactive) | GI50 (NCI/ADR-RES): > 100 µM (inactive) | GI50 (OVCAR-3): > 100 µM (inactive) | GI50 (COLO 205): > 100 µM (inactive) | GI50 (HCC 2998): > 100 µM (inactive) | GI50 (KM12): > 100 µM (inactive) | GI50 (MDA-MB-231): > 100 µM (inactive) | GI50 (HCT-15): > 100 µM | GI50 (RXF 393): > 100 µM (inactive) | GI50 (RPMI-8226): > 100 µM (inactive) | GI50 (UACC-257): > 100 µM (inactive) | GI50 (M14): > 100 µM (inactive) | GI50 (SK-MEL-28): > 100 µM (inactive)
